Several values for one entry are separate records, joined by “and”; a condition that tells them apart may be missing. Identical values can stand only once. *1 amine or outer side, *2 acyl side, *3 side chain or, on linkers, in order; H or OH if unused. Where a SMILES comes first, the peptide text is derived from it. Bridges are numbered along the chain shown (N, C = ends). [ ]: non-standard residue; d: D form. The star is where a group is joined. Leu(3R-OH,Nα-propionyl) = CCC(=O)N[C@H](C(=O)*)[C@H](O)C(C)C; X1 = CC(C)[C@@H](O[*:3])[C@H](N[*:1])C(=O)[*:2]; NMeT = CN[C@H](C(=O)O)[C@@H](C)O; dPhLac = O=C(O)[C@H](O)Cc1ccccc1; NMeA = CN[C@@H](C)C(=O)O; NMeDha = C=C(NC)C(=O)O
Key:
[1] = biological target: T1, Human P2Y1-R (Homo sapiens, UniProt P47900); test: IP1 accumulation assay (HTRF) in HEK293T cells expressing P2Y1-R; assay type: cell-based; settings: ADP 100 μM, MRS2179 10 μM, Gq inhibitor 100 nM, 2 h, result in words
T1 construct: expressed in transfected cells; host or cells: HEK293T/17

[2] = system: HEK293T cells (pcDNA3.1); test: IP1 accumulation assay (HTRF) in control HEK293T cells (pcDNA3.1); assay type: cell-based, Human; settings: pcDNA3.1, Gq inhibitor 100 nM, 2 h
From the text: Since Gαq protein activation is known to induce PLC activation leading to IP3 and subsequent cytosolic calcium release, we analyzed the constitutive Gαq-dependent P2Y1-R signaling by quantifying intracellular inositol monophosphate (IP1) using a monoclonal antibody-based competitive ELISA. IP1 is a downstream metabolite of IP3 that accumulates in cells following Gαq protein-coupled receptor activation, making it an ideal readout for Gαq protein-dependent signaling pathways.
(§1) Quantification of intracellular IP1 was performed using the HTRF (Homogeneous Time Resolved Fluorescence) IP1 competitive immunoassay (IP-One Tb kit. Cisbio. France) according to the manufacturer’s instructions. Briefly, 20,000 HEK293T/17 cells or 3.10^6 platelets were distributed in a 384-well white microplate (Greiner) and incubated with the indicated molecules for 30 min or 2 h at 37 °C in the presence of 50 mM of LiCl to prevent IP1 degradation. After addition of d2-labeled IP1 (acceptor) and anti-IP1-Cryptate (donor) for 1 h, the specific FRET signals were calculated by the fluorescence ratio of the acceptor and donor emission signal (665/620 nm) collected using a modified Infinite F500 (Tecan Group Ltd). Conversion of the HTRF ratio of each sample into IP1 concentrations was performed on the basis of a standard curve to determine the linear dynamic range of the assay.

[3] = system: washed murine platelets (P2Y1-R/Gαq signaling); test: IP1 accumulation assay (HTRF) in washed murine platelets; assay type: cell-based, mouse; settings: Gq inhibitor 100 nM, 2 h
Experimental: (§2) As performed in HEK293T cells, we thus quantified intracellular IP1 levels to monitor Gαq protein-dependent signaling pathways.
Platelet-rich plasma (PRP) was obtained by mixing blood with 1 volume of modified Hepes Tyrode’s buffer (137 mM NaCl, 2 mM KCl, 12 mM NaHCO3, 0.3 mM NaH2PO4, 1 mM MgCl2, 2 mM CaCl2, 5.5 mM glucose, 5 mM HEPES, and 0.35% (w/v) BSA, pH 6.7) followed by a centrifugation at 150 g for 2 min at 37 °C. Then, platelets were pelleted by centrifugation at 1000 g for 4 min, resuspended in modified Hepes Tyrode’s buffer (pH 7.4), adjusted to 3.10^8 platelets/mL in the presence of 0.02 U/mL of apyrase and 10 μM indomethacin and rested for 45 minutes at 37°C before platelet stimulation. PGI2 (0.5 μM) was added before centrifugation steps to avoid platelet activation.
as §1

[4] = system: washed human platelets (P2Y1-R/Gαq signaling); test: IP1 accumulation assay (HTRF) in washed human platelets; assay type: cell-based; settings: Gq inhibitor 100 nM, 2 h
Experimental: as §2
Human platelets were prepared from adult healthy volunteers free of antiplatelet or anti-inflammatory medication since at least ten days. […] After two steps of centrifugation and suspension in Tyrode’s buffer (140 mM NaCl, 5 mM KCl, 5 mM KH2PO4, 1 mM MgSO4, 10 mM HEPES, 5 mM glucose and 0.35% (w/v) BSA, pH 6,7), washed platelets were suspended in the same buffer adjusted to pH 7.4 and containing 1 mM CaCl2. The final platelet suspension was adjusted to 3.10^8 platelets/mL and rested for 45 min in the presence of 0.02 U/mL apyrase and 10 μM indomethacin at 37 °C prior experiments. PGI2 (0.5 μM) was added before centrifugation steps to avoid platelet activation.
as §1

[5] = system: P2Y12-R; settings: result in words; cited from earlier work
[6] = system: washed human platelets; settings: TRAP stimulation, result in words
Experimental: For platelet dense granule secretion, washed human platelets were stimulated with 50 μM TRAP (10 min, 37 °C) and stained with conjugated anti-CD63 FITC-conjugated antibody (BD Biosciences reference 557288. 1:5) for 15 min at room temperature. The platelets were then diluted into 1 mL PBS and samples were then kept in the dark until analysis by flow cytometry. The results are expressed as median fluorescence intensity (MFI).

T1 sequence (P47900 whole entry): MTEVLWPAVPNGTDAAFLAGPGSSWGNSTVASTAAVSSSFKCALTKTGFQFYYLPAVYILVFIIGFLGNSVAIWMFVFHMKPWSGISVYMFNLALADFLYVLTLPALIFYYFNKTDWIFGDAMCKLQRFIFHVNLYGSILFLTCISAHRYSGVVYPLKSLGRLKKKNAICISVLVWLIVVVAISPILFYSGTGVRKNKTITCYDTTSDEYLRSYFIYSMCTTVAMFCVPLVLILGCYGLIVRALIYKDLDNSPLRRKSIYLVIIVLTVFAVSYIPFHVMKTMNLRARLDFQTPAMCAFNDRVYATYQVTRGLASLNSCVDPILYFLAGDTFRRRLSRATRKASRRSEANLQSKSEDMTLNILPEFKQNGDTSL

Molecule: C=C1C(=O)N[C@@H](C)C(=O)N(C)[C@@H](C)C(=O)N[C@@H]([C@H](OC(=O)[C@@H](NC(=O)CC)[C@H](O)C(C)C)C(C)C)C(=O)N(C)[C@@H]([C@@H](C)OC)C(=O)O[C@H](C(C)C)[C@H](NC(C)=O)C(=O)O[C@H](Cc2ccccc2)C(=O)N1C [FR900359] (Ac-[X1][dPhLac][NMeDha]A[NMeA][X1](Leu(3R-OH,Nα-propionyl))[NMeT](Me); ester 1-C)
- Effect on IP1 production [1]: significantly reduced
- IP1 concentration [2]: 132.385 nM and 158.041 nM and 95.7319 nM and 85.9635 nM and 143.254 nM
- IP1 concentration (% matched basal values) ([3]; murine platelets, individual mice): 27.5986 % matched basal values and 38.7127 % matched basal values and 47.9185 % matched basal values and 40.8858 % matched basal values and 59.9249 % matched basal values and 76.9346 % matched basal values and 9.098 % matched basal values and 14.2482 % matched basal values and 23.5315 % matched basal values and 11.8913 % matched basal values and 61.9938 % matched basal values and 36.9021 % matched basal values and 16.0009 % matched basal values
- Effect on IP1 levels ([3]; washed murine platelets, ADP 100 μM, MRS2179 10 μM, apyrase 0.02 U/mL, result in words): inhibited
- IP1 concentration (% matched basal values) ([4]; human platelets, individual donors): 19.0758 % matched basal values and 11.9666 % matched basal values and 43.5394 % matched basal values and 60.8621 % matched basal values and 37.3209 % matched basal values and 49.8124 % matched basal values and 75.4834 % matched basal values and 64.9734 % matched basal values and 85.7248 % matched basal values and 88.8134 % matched basal values and 81.06 % matched basal values and 83.4552 % matched basal values and 77.0271 % matched basal values and 36.4555 % matched basal values and 43.6521 % matched basal values and 9.5459 % matched basal values
- Effect on IP1 levels ([4]; washed human platelets, ADP 100 μM, antagonists 10 μM, apyrase 0.02 U/mL, result in words): inhibited

Molecule: CSCCNc1nc(SCCC(F)(F)F)nc2c1ncn2[C@@H]1O[C@H](COP(=O)(O)OP(=O)(O)C(Cl)(Cl)P(=O)(O)O)[C@@H](O)[C@H]1O [cangrelor]
- Behaviour at P2Y12-R constitutive signaling [5]: inverse agonists

Molecule: CCCCOC(=O)N1CCN(C(=O)[C@H](CP(=O)(O)O)NC(=O)c2cc(N3CC[C@H](OC)C3)nc(-c3ccccc3)n2)CC1 [selatogrel]
- Behaviour at P2Y12-R constitutive signaling [5]: inverse agonists

Molecule: CCCSc1nc(N[C@@H]2C[C@H]2c2ccc(F)c(F)c2)c2nnn([C@@H]3C[C@H](OCCO)[C@@H](O)[C@H]3O)c2n1 [ticagrelor]
- Behaviour at P2Y12-R constitutive signaling [5]: inverse agonists

Molecule: thrombin receptor activating peptide [TRAP]
- CD63 exposure at the platelet surface [6]: strong exposure of CD63

Source: PMC9890698 (BMC Biology, 2023)
